Source: patent US10941399B2, “Methods and compositions for gene-specific demethylation by DNA methyltransferase (DNMT)-RNA interaction” (Beth Israel Deaconess Medical Center, Inc., priority 2011, dated 2021)
“Also recorded” adds a separate entry of the source. [5mC] = 5-methylcytosine

Columns and labels:
DNMT1 = DNMT1 (Homo sapiens, UniProt P26358); assay: Electrophoretic gel mobility shift assays (EMSA/REMSA) and Kd determination with purified DNMT1; format: binding; set-up: purchased BPS Bioscience Inc; details: for Kd: constant oligonucleotide concentration (1 nM) titrated with increasing DNMT1, nonlinear regression, read-out: dissociation constant (Kd)
Experimental: Electrophoretic gel mobility shift assays (EMSAs) and Kd determination: DNA and RNA oligonucleotides (15 pmol) were end-labeled with [γ-32P] ATP (Perkin Elmer) and T4 polynucleotide kinase (New England Biolabs). Reactions were incubated at 37° C. for 1h and then passed through G-25 spin columns (GE Healthcare) according to the manufacturer's instructions to remove unincorporated radioactivity. Labeled samples were gel-purified on 10% polyacrylamide gels. Binding reactions were carried out in 10 μL volumes in the following buffer: 5 mM Tris pH 7.4, 5 mM MgCl2, 1 mM DTT, 3% v/v glycerol, 100 mM NaCl. Various amounts of purified DNMT1 protein (BPS Bioscience Inc., 0.021-0.156 μM) were incubated with 1.1 nM of 32P-labeled dsDNA and ss/ds RNAs. In the competitive assay, a fixed amount of protein and increasing amounts of competitors (dsDNA or poly (dI-dC)) were used. All reactions were assembled on ice and then incubated at room temperature. Samples were loaded onto 6% native polyacrylamide gels (0.5×TBE) at 4° C. for 3 h at 140 V. Gels were dried and exposed to X-ray film and a PhosphorImager screen. Data were analyzed with ImageQuant software. For affinity assays, the percent shifted species was determined as follows: the migration of the labeled DNA in this reaction was defined as zero percent shifted and the ratio of the PhosphorImager counts in the area of the lane above this band to the total counts in the lane was defined as background and subtracted from all other lanes. This band represented total input. Subsequent lanes containing DNMT1-nucleic acid complexes were treated identically, and the percentage complex formation was calculated as follows: [Input-(free probe for each lane+background/input)]. All experiments contained a control reaction lacking DNMT1. The percentage complex formation was plotted as a function of DNMT1 concentration using nonlinear regression analysis using Prism 4.0a.

myeloma cells = details: cited from earlier work
HL-60 cells = assay: DRB and ML-60218 treatment of HL-60 cells, transcript levels by Taqman qRT-PCR; format: cell-based, human
Experimental: qRT-PCR: Sybr green reactions were performed using iQ Sybr Green supermix (Biorad, Hercules, Calif.) using the following parameters: 95° C. (10 min.), 40 cycles of 95° C. (15 sec.) and 60° C. (1 min.), and 72° C. (1 min.). TaqMan analysis was performed using Hotstart Probe One-step qRT-PCR master mix (USB) at the following conditions: 50° C. (10 min.), 95° C. (2 min.), and then 40 cycles of 95° C. (15 sec.) and 60° C. (60 sec.). qRT PCR primers were located in the coding region for the mRNA (black double headed arrow) and after the polyA signal for the ecRNA (white double headed arrow) (FIG. 1A). The sequences of primers used for TaqMan real time PCR were as follows: human C/EBPa: Forward 5′-TCG GTG GACAAG AAC AG-3′ (SEQ ID NO:18), Reverse 5′-GCA GGC GGT CAT TG-3′ (SEQ ID NO:19), and Taqman Probe 5′-ACA AGGCCA AGC AGC GC-3′ (SEQ ID NO:20); ecRNA: Forward 5′-GGTTGTCTGTGGGCCAGGTCA-3′(SEQ ID NO:21), Reverse 5′-AGAGCTCATGAAAGTCAGGATTG-3′ (SEQ ID NO:22), and Taqman Probe 5′-AAT AAT ACAGCA TTT TCC CTG GCG G-3′(SEQ ID NO:23); human C/EBPγ: Forward: 5′-GGC TAG AGG AGC AGGTAC AT-3′ (SEQ ID NO:24), Reverse: 5′-GCCTGGGTATGGATAACACTA-3′ (SEQ ID NO:25), and Taqman Probe: 5′-CGACAC CAC TCA TGT CAA TGG CTG-3′ (SEQ ID NO:26); human TP73: ABI Cat. #Hs01060631_m1; 18S rRNA: ABI Cat. #4310893E; and human 5S rRNA: ABI Cat. #Hs02385257_g1. The sequences of primers used for real-time RT PCR (Sybr) were as follows: human C/EBPa: Forward: 5′-CCG CTC CTCCAC GCC TGT CCT TAG-3′ (SEQ ID NO:27) and Reverse: 5′-GCCCCACAGCCAGATCTCTAGGTC-3′ (SEQ ID NO:28); ecRNA: Forward: 5′-TCATGAGCTCTCCATCCATCCTGA-3′(SEQ ID NO:29) and Reverse: 5′-CTG GCCGAG GGT CCT GCT GGA ATC-3′ (SEQ ID NO:30); and β-ACTIN Promega Cat. #G5740.
Double thymidine block (early S-phase block): HL-60 cells were grown overnight to 70-80% confluence, washed twice with 1×PBS, and cultured in DMEM (10% FCS)+2.5 mM thymidine for 18 h (first block). Thymidine was washed out with 1×PBS, and cells were grown in DMEM (10% FCS). After 8 hours, cells were cultured in presence of thymidine for 18 h (second block) and then released as described. Synchrony was monitored by flow cytometry analysis of propidium iodide-stained cells using a LSRII flow cytometer (BD Biosciences) at the Harvard Stem Cell Institute/Beth Israel Deaconess Center flow cytometry facility.
DRB and ML-60218 treatment: After release from double thymidine block, HL-60 cells were treated with 100 μM of 5,6-Dichlorobenzimidazole 1-β-D-ribofuranoside (DRB) (Sigma Aldrich) for 1, 2, and 3 hours. HL-60 cells were treated with 25 μM ML-60218 (2-chloro-N[5-(5-chloro-3-methyl-1-benzothiophen-2-yl)-2-methylpyrazol-3-yl]benzenesulfonamide, Calbiochem®) for 24 hours. Total RNA was harvested as described above and expression levels of C/EBPa, ecRNA, and 5S were measured by Taqman qRT-PCR.

[1] = 100 μM DRB, 1, 2, 3 h after release from double thymidine block

DNMT1, sequence (P26358 whole entry): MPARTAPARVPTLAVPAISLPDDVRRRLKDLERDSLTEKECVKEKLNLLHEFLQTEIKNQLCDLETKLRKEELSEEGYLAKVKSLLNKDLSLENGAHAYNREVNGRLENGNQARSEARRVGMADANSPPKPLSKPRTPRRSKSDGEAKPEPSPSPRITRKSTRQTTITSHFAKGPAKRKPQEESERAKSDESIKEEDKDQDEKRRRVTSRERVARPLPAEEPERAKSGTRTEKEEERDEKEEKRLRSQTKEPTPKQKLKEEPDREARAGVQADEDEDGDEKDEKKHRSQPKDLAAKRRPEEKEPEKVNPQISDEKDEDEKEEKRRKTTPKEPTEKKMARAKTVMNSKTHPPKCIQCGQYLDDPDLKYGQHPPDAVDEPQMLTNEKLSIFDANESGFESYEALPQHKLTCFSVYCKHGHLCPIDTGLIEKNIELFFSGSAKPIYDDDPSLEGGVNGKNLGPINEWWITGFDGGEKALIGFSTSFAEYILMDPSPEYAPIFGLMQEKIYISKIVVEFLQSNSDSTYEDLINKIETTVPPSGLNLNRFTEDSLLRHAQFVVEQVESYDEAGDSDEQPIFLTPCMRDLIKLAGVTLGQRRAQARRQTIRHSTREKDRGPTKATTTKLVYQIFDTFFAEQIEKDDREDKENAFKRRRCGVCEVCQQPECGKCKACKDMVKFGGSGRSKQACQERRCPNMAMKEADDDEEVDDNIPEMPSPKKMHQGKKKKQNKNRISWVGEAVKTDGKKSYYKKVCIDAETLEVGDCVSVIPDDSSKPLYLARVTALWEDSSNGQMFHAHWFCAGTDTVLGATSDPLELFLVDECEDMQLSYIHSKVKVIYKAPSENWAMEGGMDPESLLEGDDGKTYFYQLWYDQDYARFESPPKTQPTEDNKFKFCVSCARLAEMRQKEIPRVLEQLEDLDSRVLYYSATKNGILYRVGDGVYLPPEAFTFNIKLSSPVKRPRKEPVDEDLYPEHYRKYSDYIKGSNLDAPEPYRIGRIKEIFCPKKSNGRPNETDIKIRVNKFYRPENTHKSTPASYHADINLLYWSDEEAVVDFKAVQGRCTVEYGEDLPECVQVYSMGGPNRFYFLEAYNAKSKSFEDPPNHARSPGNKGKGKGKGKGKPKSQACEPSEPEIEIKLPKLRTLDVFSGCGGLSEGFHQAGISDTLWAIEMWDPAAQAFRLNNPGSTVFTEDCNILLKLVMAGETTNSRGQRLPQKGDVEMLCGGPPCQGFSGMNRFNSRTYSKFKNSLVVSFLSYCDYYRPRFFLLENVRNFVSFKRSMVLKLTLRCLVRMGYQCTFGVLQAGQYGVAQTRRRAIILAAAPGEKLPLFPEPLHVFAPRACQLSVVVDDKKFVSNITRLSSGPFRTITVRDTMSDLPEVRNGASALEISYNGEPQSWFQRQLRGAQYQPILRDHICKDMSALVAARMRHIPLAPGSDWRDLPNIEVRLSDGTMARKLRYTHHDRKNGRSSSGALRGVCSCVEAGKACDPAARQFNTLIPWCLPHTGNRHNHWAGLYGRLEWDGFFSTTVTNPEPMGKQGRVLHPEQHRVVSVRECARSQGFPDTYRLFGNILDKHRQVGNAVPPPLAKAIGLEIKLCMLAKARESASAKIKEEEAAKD

umDNA: unmethylated dsDNA probe (SEQ ID NOs:64, 71) (chain 1 CTGAGGCCTTGGCGAGGCTTCT; chain 2 AGAAGCCTCGCCAAGGCCTCAG; DNA, backbone not given here; listed as Homo sapiens)
Kd (DNMT1; EMSA): 82 nM

mutated R01: R01 with C to U substitutions in CpG dinucleotides (SEQ ID NO:69) (CUGGGAUGCAGGUGGUGUCAGGC; chemistry not given here; listed as Homo sapiens)
DNMT1 binding after C to U substitution of CpG dinucleotides (DNMT1; stem-and-loop-like structure preserved): not affected

R04: ssRNA oligonucleotide of C/EBPa ecRNA, positions 4777-4798 of SEQ ID NO:8 (SEQ ID NO:63), lacking stem-and-loop-like structures (UCACACACACCGCAGCUCCAGA; chemistry not given here; listed as Homo sapiens)
DNMT1 binding affinity in REMSA (in words) (DNMT1): did not display the same binding affinity as folded RNA; also recorded: lower DNMT1 affinity compared to R05

Nc1ncn([C@H]2C[C@H](O)[C@@H](CO)O2)c(=O)n1 [5-aza-2′-deoxycytidine]
PU.1 expression (myeloma cells): upregulation | growth of myeloma cells (myeloma cells): growth arrest

OC[C@H]1O[C@@H](n2cnc3cc(Cl)c(Cl)cc32)[C@H](O)[C@@H]1O [DRB, 5,6-Dichlorobenzimidazole 1-β-D-ribofuranoside]
C/EBPa mRNA expression level (HL-60 cells; [1]): strong down-regulation | ecRNA expression level (HL-60 cells; [1]): no decrease; also recorded: did not reduce

Cc1c(-c2cc(NS(=O)(=O)c3ccccc3Cl)n(C)n2)sc2ccc(Cl)cc12 [ML-60218, 2-chloro-N[5-(5-chloro-3-methyl-1-benzothiophen-2-yl)-2-methylpyrazol-3-yl]benzenesulfonamide]
5S rRNA level (HL-60 cells; 25 μM ML-60218, 24 hours): significantly reduced | C/EBPa mRNA level (HL-60 cells; 25 μM ML-60218, 24 hours): little effect; also recorded: only moderately affected | ecRNA level (HL-60 cells; 25 μM ML-60218, 24 hours): marked down-regulation; also recorded: significantly reduced

RNA: folded ssRNA oligonucleotide of C/EBPa ecRNA, positions 4627-4648 of SEQ ID NO:8 (SEQ ID NO:62) (CUGAGGCCUUGGCGAGGCUUCU; chemistry not given here; listed as Homo sapiens)
Kd (DNMT1; EMSA): 45 nM | DNMT1 concentration at which initial complex is formed (DNMT1; EMSA, increasing DNMT1 concentrations): < 0.013 µM | strength of DNMT1 complex with RNA compared to hmDNA and mDNA (DNMT1; ratio versus hmDNA and mDNA): 3 fold | strength of DNMT1 complex with RNA compared to umDNA (DNMT1; ratio versus umDNA): 2 fold

mDNA: methylated dsDNA probe (SEQ ID NOs:66, 73) (chain 1 CTGAGGCCTTGGCGAGGCTTCT; chain 2 AGAAGCCTCGCCAAGGCCTCAG; chain 1: DNA, [5mC] at 13, backbone not given here; chain 2: DNA, [5mC] at 9, backbone not given here; listed as Homo sapiens)
Kd (DNMT1; EMSA): 110 nM

hmDNA: hemimethylated dsDNA probe (SEQ ID NOs:65, 72) (chain 1 CTGAGGCCTTGGCGAGGCTTCT; chain 2 AGAAGCCTCGCCAAGGCCTCAG; chain 1: DNA, [5mC] at 13, backbone and methylation of C not given here; chain 2: DNA, backbone not given here; listed as Homo sapiens)
Kd (DNMT1; EMSA): 140 nM

NCCCNCCCCNCCCN [spermine]
effect of spermine on RNA-DNMT1 binding (DNMT1; REMSA with increasing concentrations of spermine): Only a thousand-fold molar excess of spermine began to moderately affect the binding; also recorded: no significant changes in binding were observed
